# Test results as given in publication PMC11785675, “Phase Ib study of the oral PI3Kδ inhibitor linperlisib in patients with advanced solid tumors” (International Journal of Clinical Oncology, 2024).
# Experiments:
# [1] = system: patients with advanced solid tumors; conditions: 80 mg/day oral;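 also: phase Ib open-label single-arm trial, once-daily dosing in 28-day cycles, adverse events graded by NCI CTCAE v5.0, recorded until at least 30 days post last dose, incidence as patient counts and percentages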
# Procedure: (§1) This phase Ib, single-arm, open-label, multi-center clinical trial recruited patients with advanced or metastatic solid tumors from eight sites in China.
# (§2) The main exclusion criteria included prior use of PI3K targeted agents and clinically symptomatic central nervous system metastasis or meningeal metastasis.
# (§3) Patients received oral linperlisib 80 mg once per day, taken with warm water either 1 h prior to or 2 h after a meal every day, in a 28-day cycle. Dose adjustments, including holds and reductions, were mandated for grade 3/4 hematologic and grade 3 non-hematologic toxicity. Treatment with linperlisib continued until disease progression, intolerable toxicity, withdrawal of informed consent, death or any other conditions deemed by the investigator to warrant drug discontinuation.
# (§4) Physical examination, assessment of ECOG performance status, clinical laboratory evaluations, electrocardiogram, and other safety evaluations were conducted to assess safety. AEs were graded according to the National Cancer Institute Common Terminology Criteria for Adverse Events (CTCAE), Version 5.0. All AEs were recorded from the time of signing the informed consent to at least 30 days after the last dose, and were followed until resolution or stabilization. Patients underwent radiographic assessments every 8 weeks by enhanced computed tomography or magnetic resonance imaging according to RECIST 1.1.
# (§5) The primary endpoint was safety as assessed by monitoring the frequency, duration, and severity of AEs. Secondary endpoints were efficacy endpoints, including ORR, DCR, and progression-free survival (PFS).
# (§6) Baseline data are presented descriptively. ORR is determined by the proportion of patients who achieve a confirmed complete response (CR) or partial response (PR) as the best overall response, and is presented with CIs. PFS and overall survival (OS) curves are generated using the Kaplan–Meier method. The incidence of AEs and serious AEs (SAEs) are reported as numbers and percentages.
# advanced solid tumors = assay: Phase Ib trial of oral linperlisib: efficacy (RECIST 1.1); assay type: in vivo, human; conditions: 80 mg/day oral;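 also: Open-label single-arm multicenter study in China, once-daily dosing over 28-day cycles, response judged by contrast CT or MRI every 8 weeks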
# Procedure: as §1, §2, §3, §4, §5, §6
# [2] = Phase Ib trial: pharmacokinetics of linperlisib 80 mg once daily; assay type: in vivo, human
# Procedure: Pharmacokinetic analysis included the first 13 patients enrolled in this study who received linperlisib at 80 mg once daily.
# [3] = system: malignant B cells and primary tumor cell lines; conditions: preclinical data, no reference given; cited from earlier work
# [4] = single-dose 14C-YY-20394 tracer study; cited from earlier work
smiles,measurement,setting,value
COc1ncc(-c2nc(N3CCOCC3)nc3c(CN4CCC(C(C)(C)O)CC4)cc(F)cc23)cc1NS(C)(=O)=O [linperlisib],Patients with SAEs of grade 3 or greater,"[1]; 94 patients, 29 SAEs",27.7%
same,Patients who discontinued treatment due to AEs,"[1]; 94 patients, data cutoff April 03, 2023",21.3%
same,Patients with SAEs,"[1]; 94 patients, thirty-five SAEs",30.9%
same,Incidence of hyperglycemia related to linperlisib,[1]; all grades,2.1%
same,"Incidence of diarrhea, colitis, and hepatotoxicity",[1]; compared with other PI3K inhibitors,very low
same,DCR in patients with thymic carcinoma,advanced solid tumors,50%
same,"DCR, patients with less than three prior lines of therapy",advanced solid tumors,46.3%
same,Progressive disease as best response,advanced solid tumors; 94 patients,Thirty-nine
same,Stable disease,advanced solid tumors; 94 patients,34 patients
same,Median progression-free survival (PFS),"advanced solid tumors; 94 patients, 95% CI 1.79–1.88",1.85 months
same,Median overall survival (OS),"advanced solid tumors; 94 patients, median follow-up 4.2 months",not reached
same,Complete response (CR) rate,"advanced solid tumors; 94 patients, one thymoma patient",1.1%
same,Objective response rate (ORR),"advanced solid tumors; all 94 patients, 95% CI 0.0–5.8",1.1%
same,Disease control rate (DCR),"advanced solid tumors; all 94 patients, 95% CI 27.5–47.8",37.2%
same,"DCR, anal cancer",advanced solid tumors; n = 1,1 (100.0) n (%)
same,"DCR, endometrial cancer",advanced solid tumors; n = 1,0 (0.0) n (%)
same,"DCR, esophageal cancer",advanced solid tumors; n = 1,0 (0.0) n (%)
same,"DCR, lung neuroendocrine carcinoma",advanced solid tumors; n = 1,1 (100.0) n (%)
same,"DCR, lung squamous cell carcinoma",advanced solid tumors; n = 1,0 (0.0) n (%)
same,"DCR, oral cavity cancer",advanced solid tumors; n = 1,1 (100.0) n (%)
same,"DCR, ovarian cancer",advanced solid tumors; n = 1,1 (100.0) n (%)
same,"DCR, pancreatic cancer",advanced solid tumors; n = 1,1 (100.0) n (%)
same,"DCR, parotid carcinoma",advanced solid tumors; n = 1,0 (0.0) n (%)
same,"DCR, thymoma",advanced solid tumors; n = 1,1 (100.0) n (%)
same,"ORR, anal cancer",advanced solid tumors; n = 1,0 (0.0) n (%)
same,"ORR, endometrial cancer",advanced solid tumors; n = 1,0 (0.0) n (%)
same,"ORR, esophageal cancer",advanced solid tumors; n = 1,0 (0.0) n (%)
same,"ORR, lung neuroendocrine carcinoma",advanced solid tumors; n = 1,0 (0.0) n (%)
same,"ORR, lung squamous cell carcinoma",advanced solid tumors; n = 1,0 (0.0) n (%)
same,"ORR, oral cavity cancer",advanced solid tumors; n = 1,0 (0.0) n (%)
same,"ORR, ovarian cancer",advanced solid tumors; n = 1,0 (0.0) n (%)
same,"ORR, pancreatic cancer",advanced solid tumors; n = 1,0 (0.0) n (%)
same,"ORR, parotid carcinoma",advanced solid tumors; n = 1,0 (0.0) n (%)
same,"ORR, thymoma",advanced solid tumors; n = 1,1 (100.0) n (%)
same,"DCR, carcinoma of renal pelvis",advanced solid tumors; n = 2,1 (50.0) n (%)
same,"DCR, cholangiocarcinoma",advanced solid tumors; n = 2,0 (0.0) n (%)
same,"DCR, hepatocellular carcinoma",advanced solid tumors; n = 2,0 (0.0) n (%)
same,"ORR, carcinoma of renal pelvis",advanced solid tumors; n = 2,0 (0.0) n (%)
same,"ORR, cholangiocarcinoma",advanced solid tumors; n = 2,0 (0.0) n (%)
same,"ORR, hepatocellular carcinoma",advanced solid tumors; n = 2,0 (0.0) n (%)
same,"DCR, gallbladder cancer",advanced solid tumors; n = 3,2 (66.7) n (%)
same,"DCR, nasopharyngeal carcinoma",advanced solid tumors; n = 3,2 (66.7) n (%)
same,"ORR, gallbladder cancer",advanced solid tumors; n = 3,0 (0.0) n (%)
same,"ORR, nasopharyngeal carcinoma",advanced solid tumors; n = 3,0 (0.0) n (%)
same,"DCR, gastric cancer",advanced solid tumors; n = 4,1 (25.0) n (%)
same,"ORR, gastric cancer",advanced solid tumors; n = 4,0 (0.0) n (%)
same,"DCR, renal cell carcinoma",advanced solid tumors; n = 5,2 (40.0) n (%)
same,"ORR, renal cell carcinoma",advanced solid tumors; n = 5,0 (0.0) n (%)
same,"DCR, lung adenocarcinoma",advanced solid tumors; n = 6,3 (50.0) n (%)
same,"ORR, lung adenocarcinoma",advanced solid tumors; n = 6,0 (0.0) n (%)
same,"DCR, breast cancer",advanced solid tumors; n = 8,1 (12.5) n (%)
same,"ORR, breast cancer",advanced solid tumors; n = 8,0 (0.0) n (%)
same,"DCR, sarcoma",advanced solid tumors; n = 9,3 (33.3) n (%)
same,"ORR, sarcoma",advanced solid tumors; n = 9,0 (0.0) n (%)
same,"DCR, colon cancer",advanced solid tumors; n = 11,3 (27.3) n (%)
same,"ORR, colon cancer",advanced solid tumors; n = 11,0 (0.0) n (%)
same,"DCR, rectal cancer",advanced solid tumors; n = 13,3 (23.1) n (%)
same,"ORR, rectal cancer",advanced solid tumors; n = 13,0 (0.0) n (%)
same,"DCR, thymic carcinoma",advanced solid tumors; n = 16,8 (50.0) n (%)
same,"ORR, thymic carcinoma",advanced solid tumors; n = 16,0 (0.0) n (%)
same,"DCR, lung and mediastinal tumors, total",advanced solid tumors; n = 25,13 (52.0) n (%)
same,"ORR, lung and mediastinal tumors, total",advanced solid tumors; n = 25,1 (4.0) n (%)
same,"DCR, other types of tumor, total",advanced solid tumors; n = 31,11 (35.5) n (%)
same,"ORR, other types of tumor, total",advanced solid tumors; n = 31,0 (0.0) n (%)
same,"DCR, gastrointestinal tumors, total",advanced solid tumors; n = 38,11 (28.9) n (%)
same,"ORR, gastrointestinal tumors, total",advanced solid tumors; n = 38,0 (0.0) n (%)
same,Shrinkage of target lesions,"advanced solid tumors; thymoma, gallbladder cancer, anal canal squamous cell carcinoma, renal cell carcinoma, renal pelvis cancer",more than 20%
same,Target lesion change in patients with HCC,advanced solid tumors; two patients with HCC,one of them had shrinkage of target lesions
same,Accumulation after multiple administrations,[2]; 80 mg once daily,no accumulation was observed
same,Trough levels,"[2]; 80 mg once daily, cycle 1, day 7, range 68.4–232",167.7 ng/mL
same,Accumulation after multiple administrations,"[2]; 80 mg once daily, listed as Linperlisib",no accumulation is observed
same,Absorption after a single dose,[2]; 80 mg oral,rapidly absorbed
same,Vd/F,"[2]; human, plasma, single dose oral 80 mg qd, n = 13, read-out: Vz/F, mean (SD)",251 L
same,AUC(0-t),"[2]; human, single dose oral 80 mg qd, n = 13, plasma, read-out: AUC0-24, mean (SD)",4.92 µg·h/mL
same,AUC(0-inf),"[2]; human, single dose oral 80 mg qd, n = 13, plasma, read-out: AUC0-∞, mean (SD)",7.26 µg·h/mL
same,Cmax,"[2]; human, single dose oral 80 mg qd, n = 13, plasma, read-out: Cmax, mean (SD)",0.364 µg/mL
same,MRT,"[2]; human, single dose oral 80 mg qd, n = 13, plasma, read-out: MRT, median (range)",18.9 h
same,half-life,"[2]; human, single dose oral 80 mg qd, n = 13, plasma, read-out: T1/2, mean (SD) (converted)",14.3 h
same,Tmax,"[2]; human, single dose oral 80 mg qd, n = 13, plasma, read-out: Tmax, median (range)",3.9 h
same,"CL/F, mean (SD)","[2]; single dose oral 80 mg qd, n = 13",13.5 (4.9) L/h
same,Apoptosis and proliferation,[3],induce apoptosis and inhibit the proliferation
same,Route of excretion,[4],primarily excreted through the kidneys
